Data on eight compounds can be found in paper PMC12569736 (Journal of Cosmetic Dermatology, 2025).

Each structure is given as a SMILES string. pIC50: −log10 of the molar value.

One may read the pIC50 as the negative decadic logarithm of the IC50, by convention in mol/L.

One data set deals with T1, human tyrosinase (hTYR) (Homo sapiens, UniProt P14679).
T1 construct: tyrosinase enzyme solution derived from MNT‐1 cells; endogenous in cells; host or cells: MNT-1 human melanoma cell line (crude lysate supernatant)
T1 sequence (P14679 19-529): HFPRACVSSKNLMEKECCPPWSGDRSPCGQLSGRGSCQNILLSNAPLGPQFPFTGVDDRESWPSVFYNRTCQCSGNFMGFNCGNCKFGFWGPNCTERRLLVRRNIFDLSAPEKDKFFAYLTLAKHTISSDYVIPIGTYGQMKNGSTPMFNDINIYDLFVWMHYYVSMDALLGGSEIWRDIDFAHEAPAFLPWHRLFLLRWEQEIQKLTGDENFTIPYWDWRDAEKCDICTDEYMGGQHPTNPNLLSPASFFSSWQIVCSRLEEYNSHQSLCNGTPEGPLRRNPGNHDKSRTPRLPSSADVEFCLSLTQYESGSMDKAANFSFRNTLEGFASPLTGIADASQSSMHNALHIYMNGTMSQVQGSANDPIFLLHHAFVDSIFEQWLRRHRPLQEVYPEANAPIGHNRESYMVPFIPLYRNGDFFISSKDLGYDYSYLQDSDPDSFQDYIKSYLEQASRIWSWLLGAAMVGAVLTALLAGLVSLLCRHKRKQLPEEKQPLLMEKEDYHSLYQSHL
Description: L‐DOPA oxidation assay for tyrosinase activity (MNT‐1 cell lysate). Format: biochemical. The settings on record: for inhibitory effect on hTYR at maximum tested concentration: up to 33.3 μM; for pIC50: MNT‐1 lysate, L‐DOPA 4 mM, pH 6.9, read-out: IC50 against hTYR; for inhibition at 0.4 µM: read-out: inhibitory activity against hTYR compared to the control. The procedure: The hTYR‐mediated L‐DOPA oxidation assay was performed according to Winder and Harris. MNT‐1 cells were resuspended in 0.05 M sodium phosphate buffer (pH 6.9) and sonicated for 1 min. After incubation on ice for 3–5 min, the mixture underwent a second sonication. The lysate was centrifuged at 13 000 rpm for 15 min at 4°C, and the supernatant was collected and kept on ice.
For the assay, 20 μL of crude enzyme solution and 80 μL sodium phosphate buffer were added to a 96‐well plate and centrifuged at 1000 rpm for 30 s. Subsequently, 2 μL of different concentrations of test compounds were added to each well, followed by centrifugation at 1000 rpm for 30 s. Finally, 100 μL L‐DOPA (final concentration 4 mM) was added to initiate the reaction. The microplate reader (Synergy H1 Hybrid Reader, BioTek) was used to monitor the reaction at 26°C, measuring absorbance at 475 nm every minute for 60 min. IC50 values were calculated using GraphPad software based on Vmax values from the kinetic curves.
The L‐DOPA tyrosinase assay was performed using a tyrosinase enzyme solution derived from MNT‐1 cells in 50 mM sodium phosphate buffer (pH 6.9), with a substrate (L‐DOPA) concentration of 4 mM and various concentrations of inhibitors as indicated. Data represent mean ± standard deviation of three independent experiments.

The subject of another data set is MNT‐1 cells. The data set can be described thus: Melanin content in MNT‐1 cells after 6 days of treatment. The data set is classed as cell-based, human. The settings on record: for inhibition of melanin production: 0.37 μM; for inhibition of melanin production / inhibition at 1.1 µM / inhibition at 3.3 µM / inhibition at 10 µM: 6 days; for pIC50 / inhibition at 1.1 µM / inhibition at 3.3 µM / inhibition at 10 µM: Homo sapiens; for pIC50: 144 h, MNT‐1, 6 days, read-out: IC50 of melanin production; for inhibition at 1.1 µM / inhibition at 3.3 µM / inhibition at 10 µM: MNT-1, 144 h, read-out: inhibition of melanin production. As for the experimental part:
MNT‐1 cells were exposed to varying concentrations of test compounds for 6 days. After treatment, cells were harvested and lysed in RIPA buffer on ice for 20 min. Lysates were centrifuged at 13 000 rpm for 10 min at 4°C, and the supernatant was collected. Protein concentration was quantified using a BCA Protein Assay Kit (Thermo Fisher). To extract melanin, cell pellets were dissolved in 1 M NaOH and incubated for 3 h at 80°C. Absorbance at 405 nm was measured using a Synergy H1 Hybrid Reader. Melanin content was quantified by referencing a standard curve of synthetic melanin (maximum concentration 50 μg/mL, 2‐fold gradient dilution, 8 concentration points). Melanin content was normalized to protein concentration (μg melanin/mg protein), and IC50 values were calculated using GraphPad software.
FIGURE 3 Inhibition of melanin production in MNT‐1 by KT‐939, Thiamidol, and 4‐butylresorcinol. MNT‐1 cells were treated with different concentrations of KT‐939, Thiamidol, or 4‐butylresorcinol for 6 days. The melanin content was quantified based on the standard curve of melanin, and the melanin content per mg of protein was utilized for IC50 calculations with GraphPad software.

The test system of data set [1] is NRF2/ARE signaling pathway. Description: NRF2/ARE‐luciferase reporter assay in HEK293T cells. The data set is classed as cell-based, human. The settings on record: 10 µM, 48 h, relative to DMSO. As for the experimental part:
The NRF2‐responsive firefly luciferase reporter plasmid (pGL4.27_ARE NRF2‐SPE) and Renilla luciferase control plasmid (pRL‐TK) were co‐transfected into HEK293T cells using Lipofectamine 2000. After 24 h, transfected cells were seeded into 96‐well plates and incubated overnight. Test compounds (10 μM) were added, and cells were incubated for an additional 48 h. Luciferase activities were measured using the Dual‐Lumi Luciferase Reporter Assay Kit (Beyotime Biotechnology), following the manufacturer's instructions.
FIGURE 6 KT‐939 activates the ARE/NRF2 signaling pathway. HEK293T cells transfected with an NRF2‐responsive firefly luciferase reporter were treated with 10 µM of KT‐939, hydroquinone (Hq), 377, or 4‐butylresorcinol for 48 h. Luminescence signals were normalized to renilla and expressed relative to DMSO control. *** p < 0.001 vs DMSO.

The target in the next data set is hTYR enzyme. Set-up: method as in PMID 29427586. The settings on record: purified hTYR; read-out: IC50 against the hTYR enzyme; cited from earlier work.
In another data set the test system is MelanoDerm skin model. Set-up: method as in PMID 29427586. The settings on record: cited from earlier work.
In another data set the test system is melasma. Set-up: method as in PMID 34676600. Conditions: moderate‐to‐severe melasma, 24 weeks of application, cited from earlier work.

As to `NC(=O)c1cccnc1` [nicotinamide], the “inhibitory effect on hTYR at maximum tested concentration” value (shortened to “inhibitory effect on hTYR”) on human tyrosinase (hTYR) is on record as “no significant inhibitory effects”.

On to `Oc1ccc(/C=C/c2cc(O)cc(O)c2)cc1` [resveratrol], for which the pIC50 at human tyrosinase (hTYR) was 5.22. On human tyrosinase (hTYR) (at 0.4 μM), the inhibition at 0.4 µM amounted to 13.4%.

Regarding `CCCCc1ccc(O)cc1O` [4‐butylresorcinol], in the data set with MNT‐1 cells, the “inhibition of melanin production” value is given as “neither Thiamidol nor 4‐butylresorcinol showed inhibitory activity”, the pIC50 is 5.10, the inhibition at 1.1 µM was 15.8% and the inhibition at 3.3 µM came out at 32.6%. Moreover, in the data set on MNT‐1 cells, the inhibition at 10 µM was found to be 48.4%. Moreover, on human tyrosinase (hTYR), the pIC50 was 5.15. The inhibition at 0.4 µM at human tyrosinase (hTYR) (at 0.4 μM) was 9.7%. In addition, the “NRF2 signaling pathway activation (luciferase reporter)” value (from here on “NRF2 signaling pathway activation”) in data set [1] is reported as “no effect on NRF2 activation”.

Turning to `OC[C@H]1O[C@@H](Oc2ccc(O)cc2)[C@H](O)[C@@H](O)[C@@H]1O` [arbutin], the “inhibitory effect on hTYR” value on human tyrosinase (hTYR) is “no significant inhibitory effects”.

Turning to `CC(c1ccccc1)c1ccc(O)cc1O` (centres unmarked) [compound 377, phenethyl resorcinol], the pIC50 on human tyrosinase (hTYR) was 4.67. The “inhibitory activity against hTYR compared to the control” value on human tyrosinase (hTYR) (at 0.4 μM) stood at 2.7%. Moreover, the “NRF2 signaling pathway activation” value in data set [1] is “no effect on NRF2 activation”.

`Oc1ccc(O)cc1` [hydroquinone]: on human tyrosinase (hTYR), the “inhibitory effect on hTYR” value was “no significant inhibitory effects”. Besides, the “NRF2 signaling pathway activation” value in data set [1] was “no effect on NRF2 activation”.

Take `CC(C)C(=O)Nc1nc(-c2ccc(O)cc2O)cs1` [Thiamidol, isobutylamido thiazolyl resorcinol]: the pIC50 on hTYR enzyme was 5.96. Moreover, in the data set on MNT‐1 cells, the “inhibition of melanin production” value is recorded as “neither Thiamidol nor 4‐butylresorcinol showed inhibitory activity”, the pIC50 is 5.89, the inhibition at 1.1 µM is 27.2% and the inhibition at 3.3 µM amounted to 62.2%. Further, in the data set on MNT‐1 cells, the inhibition at 10 µM turned out to be 76.5%. The pIC50 with MelanoDerm skin model is 6.05. The pIC50 at human tyrosinase (hTYR) is 6.48. In addition, the inhibition at 0.4 µM on human tyrosinase (hTYR) (at 0.4 μM) came to 53.5%. Also, the tolerability entry in the data set with melasma is “favorable tolerability”. For the same compound, the “melasma severity compared to baseline and vehicle” value with melasma (Fitzpatrick phototypes III–V) is reported as “significantly reduced melasma severity”.

As to `CC1(C)C=Cc2c(ccc3c2OC[C@@H](c2ccc(O)cc2O)C3)O1` [glabridin], at human tyrosinase (hTYR), the “inhibitory effect on hTYR” value is reported as “no significant inhibitory effects”.
